Assay results from PubChem BioAssay AID1421 (Emory University Molecular Libraries Screening Center, 2008).
Where “and” joins values, the source holds several entries; their conditions need not be identical. Equal values may be shown once. Calls of active or inactive are those of the source. How the calls were made is not given here.

target: Prostaglandin E2 receptor EP2 subtype (Homo sapiens) (UniProt P43116); assay: compounds shifting PGE2 potency at EP2 – cell-based, human EP2, PGE2 EC50 shift, dose response (AID 1421); conditions: EP2-expressing cells, PGE2 EC50 shift by compound
Sequence (P43116 whole entry, looked up): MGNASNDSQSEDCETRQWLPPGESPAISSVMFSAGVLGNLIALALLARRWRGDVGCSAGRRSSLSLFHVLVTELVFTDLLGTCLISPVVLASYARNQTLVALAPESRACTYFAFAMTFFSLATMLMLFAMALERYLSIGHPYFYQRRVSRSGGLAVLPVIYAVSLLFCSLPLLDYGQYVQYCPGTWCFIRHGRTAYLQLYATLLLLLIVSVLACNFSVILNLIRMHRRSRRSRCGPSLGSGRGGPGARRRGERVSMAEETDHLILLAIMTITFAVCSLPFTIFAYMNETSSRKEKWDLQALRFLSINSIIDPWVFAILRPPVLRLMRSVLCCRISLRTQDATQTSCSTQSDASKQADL

For COc1ccc(-c2cc(-c3ccccc3)nc(N3CCCC3)n2)cc1OC, the outcome was “active”.
In the case of Cn1nc(-c2ccccc2)c(-c2nc(-c3cccc(C(F)(F)F)c3)no2)c1Cl, the outcome is reported as “active”.
CCOC(=O)c1c(NC(=O)c2ccc(-n3cnnn3)cc2)sc2c1CCCC2 was tested, and the outcome was “active”.
With C=CCSc1nc2sc(C)c(C)c2c(=O)n1CC=C the outcome was “active”.
For Cc1noc(C)c1CSc1nc2ccccc2c(=O)n1-c1ccccc1, the outcome was “active”.
For CCSc1nc2sc3c(c2c(=O)n1CC)CC(C)(C)OC3, the outcome was “active”.
For Cc1ccc(Cn2c(=O)n(Cc3ccco3)c(=O)c3ccccc32)cc1, the outcome was “active”.
With O=C(Nc1ccccc1Cl)N1CCSc2ccccc21 the outcome was “active”.
O=C(Nc1ccccc1N1CCCCC1)c1cnccn1 was tested, and the outcome was “active”.
For Cc1nc2c(c(C)nn2-c2ccccc2)c(C)c1Cl, the outcome was “active”.
For Cc1ccc(-c2cc(C(F)(F)F)nn2-c2ccc(S(N)(=O)=O)cc2)cc1, the outcome was “active”.
O=C(Nc1ccccc1Sc1ccccc1)c1ccc(F)cc1 was tested, and the outcome was “active”.
In the case of CC(C)Sc1cc(N2CCOCC2)nc(-c2ccc(Cl)cc2)n1, the outcome is reported as “active”.

same assay, conditions: EP2-expressing cells, PGE2 EC50 shift by compound; measured here: PGE2 EC50 at 6.7 uM compound

Point of comparison: O=C(O)c1nn(CC(=O)N(C2CCCCC2)C2CCCCC2)c(=O)c2ccccc12, PGE2 EC50 with compound 1.12 nM. Against it:
- COc1ccc(-c2cc(-c3ccccc3)nc(N3CCCC3)n2)cc1OC — the same, 1.12 nM
- O=C(c1ccco1)N(CC1CCCO1)c1nc(-c2ccccc2)cs1 (stereo unspecified) — 1.8-fold lower, 0.61 nM
- c1ccc(-c2ccccc2-c2nc(-c3cccnc3)no2)cc1 — 2.5-fold higher, 2.82 nM
- N#Cc1c(-c2ccco2)nc(SCC(=O)Nc2cccc(Cl)c2)[nH]c1=O — within 1.5-fold, 1.15 nM
- Cn1c(=O)[nH]c(=O)c2c1nc(N1CCCCCC1)n2Cc1cccc2ccccc12 — 2.4-fold higher, 2.64 nM
- CSc1nnc(-c2ccc(F)cc2)o1 — 1.5-fold higher, 1.71 nM
- CCOc1ccc(C2=Nn3c(nnc3-c3ccccc3OC)SC2)cc1 — within 1.5-fold, 0.91 nM
- Cn1nc(-c2ccccc2)c(-c2nc(-c3cccc(C(F)(F)F)c3)no2)c1Cl — within 1.5-fold, 0.81 nM
- CN=C1CC(SC)=C1c1ccc(C)cc1 — within 1.5-fold, 0.84 nM
- COc1ccc(N(Cc2ccccc2)S(=O)(=O)c2ccc(C)cc2)cc1 — within 1.5-fold, 1.05 nM
- O=C(COc1ccccc1)Nc1ccccc1N1CCN(c2ccccc2)CC1 — within 1.5-fold, 1.48 nM
- Cc1sc(NC(=O)Cc2ccc3c(c2)OCO3)nc1-c1ccc2c(c1)CCN2C(=O)c1cccc(F)c1 — within 1.5-fold, 0.97 nM
- CC(=O)Nc1ccc(C2=NN(c3ccccc3)C(c3cccs3)C2)cc1 (stereo unspecified) — 1.7-fold lower, 0.65 nM
- Cc1cc(C)c(S(=O)(=O)O)c(C)n1 — within 1.5-fold, 1.25 nM
- CCOC(=O)c1c(NC(=O)c2ccc(-n3cnnn3)cc2)sc2c1CCCC2 — within 1.5-fold, 0.85 nM
- Nc1[nH]n2c(=O)c3c(nc2c1N=Nc1ccccc1)CCCC3 — 1.9-fold higher, 2.09 nM
- CNC[C@H](O)c1ccc(O)c(O)c1 — 1.7-fold lower, 0.65 nM
- FC(F)(F)c1nnc(-c2ccccc2)nc1Sc1ccccc1 — within 1.5-fold, 0.91 nM
- CCCCOC(=O)Sc1nc2ccccc2o1 — 2.2-fold higher, 2.48 nM
- Cc1ccc(NP(=O)(Oc2ccccc2F)Oc2ccccc2F)cc1C — within 1.5-fold, 1.35 nM
- FC(F)(F)c1cccc(/C=N/NC(=S)NC2CCCCC2)c1 — 2.7-fold lower, 0.42 nM
- Cc1nnc(SCC(=O)NC2CCCCC2)n1C1CCCCC1 — 2.4-fold higher, 2.7 nM
- CC(=O)Oc1c2c(c3c(c1CC=C(C)C)O[C@]14C(=C[C@@H]5CC1C(C)(C)OC4(C/C=C(\C)C(=O)O)C5=O)C3=O)OC(C)(CCC=C(C)C)C=C2 (stereo partly specified) — within 1.5-fold, 0.89 nM
- C=CCSc1nc2sc(C)c(C)c2c(=O)n1CC=C — within 1.5-fold, 0.83 nM
- CCOC(=O)c1c(NC(=O)CN2CCN(C(=O)c3ccco3)CC2)sc2c1CCCC2 — within 1.5-fold, 0.85 nM
- CN(N=O)c1ccc(O)c(O)c1 — within 1.5-fold, 1.26 nM
- CC1(C)Oc2ccc(C(=O)N3CCOCC3)cc2N(CC(=O)N2CCOCC2)C1=O — 1.5-fold higher, 1.69 nM
- Cc1ccc(-c2csc3ncnc(N4CCc5ccccc5C4)c23)cc1 — within 1.5-fold, 0.93 nM
- N#Cc1sc2nc(N3CCCCC3)c3c(c2c1N)CCCC3 — within 1.5-fold, 1.33 nM
- Cc1noc(C)c1CSc1nc2ccccc2c(=O)n1-c1ccccc1 — within 1.5-fold, 1.3 nM
- CCOc1ccccc1COC(=O)c1cccc(-n2cnnn2)c1 — within 1.5-fold, 1.06 nM
- Cc1ccccc1S(=O)(=O)c1c(C)cc(C)n(C(C)C)c1=O — within 1.5-fold, 0.83 nM
- O=c1[nH]c(=S)c2c(n1-c1ccccc1)CCC2 — within 1.5-fold, 1.46 nM
- CC(C)c1nc(Cl)c(C#N)c2c1CSC(C)(C)C2 — within 1.5-fold, 0.85 nM
- CCOP(=O)(c1ccccc1)c1nc(-c2ccccc2C)oc1N1CCCCC1 (stereo unspecified) — 1.6-fold lower, 0.69 nM
- CC1=C/C(=C(/c2ccc(O)c(C)c2)c2ccccc2C(=O)O)C=CC1=O — within 1.5-fold, 0.96 nM
- N#Cc1sc2nc(C3CC3)cc(-c3ccccc3)c2c1N — within 1.5-fold, 0.78 nM
- CN(C)c1ncc(S(=O)(=O)c2ccc(Cl)cc2)c(-c2ccccc2)n1 — within 1.5-fold, 1.08 nM
- N#CCSc1nc2ccccc2c(=O)n1C1CCCCC1 — within 1.5-fold, 1.09 nM
- CCOC(=O)c1c(-c2ccc(C)cc2)csc1NC(=O)c1ccc(N2C(=O)CCC2=O)cc1 — within 1.5-fold, 1.5 nM
- CCSc1nc2sc3c(c2c(=O)n1CC)CC(C)(C)OC3 — within 1.5-fold, 0.96 nM
- Cc1cc(C)n(-c2nc(C)nc3c2cnn3-c2ccccc2)n1 — within 1.5-fold, 1.43 nM
- Cc1cccc(NC(=O)CSc2ncnc3c2oc2ccccc23)c1 — 2.5-fold higher, 2.85 nM
- COc1ccc2cc(CN(Cc3ccco3)C(c3nnnn3C3CCCCC3)C(C)C)c(=O)[nH]c2c1 (stereo unspecified) — within 1.5-fold, 0.76 nM
- Cc1cc(NC(=O)Cn2nnc3sc4c(c3c2=O)CCC(C(C)(C)C)C4)no1 (stereo unspecified) — within 1.5-fold, 0.98 nM
- CC1(C)CC2CC(C)(CN2c2ncnc3ccc(Br)cc23)C1 (stereo unspecified) — within 1.5-fold, 1.52 nM
- Cc1ccc(Cn2c(=O)n(Cc3ccco3)c(=O)c3ccccc32)cc1 — within 1.5-fold, 0.78 nM
- O=C(Nc1ccccc1Cl)N1CCSc2ccccc21 — within 1.5-fold, 1.55 nM
- O=C(Nc1ccccc1N1CCCCC1)c1cnccn1 — within 1.5-fold, 0.93 nM
- CN(C)Cc1ccc(F)cc1Sc1cc(Cl)ccc1Cl — within 1.5-fold, 0.77 nM
- CC(C)(Sc1ccc(CCN(CCCCC2CCCCC2)C(=O)NC2CCCCC2)cc1)C(=O)O — within 1.5-fold, 1.23 nM
- c1ccc(C2=Nc3ccccc3NC(c3ccccc3)C2)cc1 (stereo unspecified) — 2.3-fold higher, 2.58 nM
- CC(=O)N1Cc2ccccc2C(C)CC12CCCCC2 (stereo unspecified) — within 1.5-fold, 0.93 nM
- CC(=O)O[C@H]1C[C@@H](OC(C)=O)C(C)(C)C2C[C@@H](OC(C)=O)[C@]3(C)C([C@H](OC(C)=O)C[C@@]4(C)[C@H](c5ccoc5)OC(=O)[C@H]5O[C@]543)[C@]21C (stereo partly specified) — within 1.5-fold, 1.05 nM
- COC(=O)c1sccc1NC(=O)c1cccc(OC)c1 — within 1.5-fold, 1.42 nM
- Oc1ccccc1-c1nc(N2CCCC2)c2ccccc2n1 — 1.8-fold lower, 0.64 nM
- CCCn1c(=O)[nH]c(=O)c2c1nc(-c1ccccc1OC(F)F)n2CCOC — within 1.5-fold, 1.08 nM
- CCCCc1n[nH]c(=S)n1Cc1ccc(Cl)cc1 — within 1.5-fold, 1.57 nM
- COc1ccccc1-c1nnc(SCC(=O)c2ccc(C3CCCCC3)cc2)n1Cc1ccco1 — 1.6-fold lower, 0.71 nM
- CC1=CCc2c(cc3oc(C)cc(=O)c3c2O)OC1 — within 1.5-fold, 1.3 nM
- COc1ccc(Cn2c(-c3ccc(OC)cc3)nc3ccccc32)cc1 — within 1.5-fold, 1 nM
- Cc1nc2c(c(C)nn2-c2ccccc2)c(C)c1Cl — 1.6-fold lower, 0.69 nM
- OCCCNc1nc(-c2ccc(Cl)cc2)nnc1-c1ccc(Br)cc1 — within 1.5-fold, 1.11 nM
- COc1ccc(C(=O)/C(=C/O)N=Nc2ccc(F)cc2)cc1 — within 1.5-fold, 1 nM
- COc1ccccc1CN(C)CC(=O)Nc1ccccc1-c1ccccc1 — within 1.5-fold, 1.43 nM
- NC(N)=Nc1nc(CSCC/C(N)=N/S(N)(=O)=O)cs1 — within 1.5-fold, 0.78 nM
- C=CCc1cc(C=O)cc(OC)c1OCc1c(Cl)cccc1Cl — 1.9-fold lower, 0.59 nM
- CCOC(=O)c1c(C=O)c(C)n(Cc2ccc(C)cc2)c1C — within 1.5-fold, 1.31 nM
- CCOC(=O)c1c(C)nc2ccccc2c1-c1ccccc1 — within 1.5-fold, 1.31 nM
- CC1(C)Cc2nc3sc4c(SCC(=O)NC(c5ccccc5)c5ccccc5)ncnc4c3cc2CO1 — within 1.5-fold, 1.48 nM
- O=C1C2C3c4ccccc4C(c4ccccc43)C2c2nc3ccccc3n21 (stereo unspecified) — within 1.5-fold, 1.4 nM
- CCN(CC)c1ccc(/C=C2\C(=O)c3ccc(C(=O)O)cc3C2=O)cc1 — within 1.5-fold, 1.04 nM
- COc1ccc(-n2c(=S)[nH]c3c(oc4ccccc43)c2=O)cc1 — 2.5-fold higher, 2.8 nM
- Cc1cc(C)c(C#N)c(Oc2ccccc2Br)n1 — within 1.5-fold, 1.01 nM
- CCSc1ccccc1C(=O)Nc1ccc([N+](=O)[O-])cc1OC — within 1.5-fold, 1.06 nM
- CN(/N=C\c1ccc(O)c(O)c1)c1nc(-c2ccccc2)cc(-c2ccccc2)n1 — within 1.5-fold, 1.22 nM
- COC(=O)C1C(c2ccccc2)C(C(=O)OCc2ccco2)C1c1ccccc1 (stereo unspecified) — 2.3-fold higher, 2.61 nM
- C/C(CCc1oc2ccccc2c1-c1ccc(C)o1)=N/O — within 1.5-fold, 0.95 nM
- Cc1ccc(-c2cc(C(F)(F)F)nn2-c2ccc(S(N)(=O)=O)cc2)cc1 — within 1.5-fold, 1.28 nM
- CC(=O)N1N=C2/C(=C/c3ccccc3)CCCC2C1c1ccccc1 (stereo unspecified) — within 1.5-fold, 1.25 nM
- Cc1ccc(C)n1-n1c(C)nc2scc(-c3cccs3)c2c1=O — within 1.5-fold, 1.02 nM
- COc1cc(C)c(NC(c2ccccc2)c2ccccc2)cc1OC — within 1.5-fold, 1.5 nM
- Cc1cc(N)c2cc(NC(=O)Nc3ccc4nc(C)cc(N)c4c3)ccc2n1 — 2.3-fold higher, 2.6 nM
- O=C(Nc1ccccc1Sc1ccccc1)c1ccc(F)cc1 — within 1.5-fold, 0.97 nM
- Cc1ccc(OCC(=O)NNC(=O)C2CCN(c3ncccn3)CC2)cc1 — within 1.5-fold, 0.81 nM
- COC(=O)c1cc2occc2n1Cc1cccc(C)c1 — within 1.5-fold, 0.79 nM
- S=C(Nc1ccccc1Cl)N(Cc1ccccc1)Cc1ccccn1 — within 1.5-fold, 1.62 nM
- CCCC1=C(C(=O)OCC)C(c2cccs2)C(C#N)=C(N)O1 (stereo unspecified) — within 1.5-fold, 0.82 nM
- CC(C)Sc1cc(N2CCOCC2)nc(-c2ccc(Cl)cc2)n1 — within 1.5-fold, 1.02 nM
- CC1=C(C(=O)OCc2ccccc2)C(c2ccc(Cl)cc2Cl)NC(=O)N1CCCCCC(=O)O (stereo unspecified) — within 1.5-fold, 1.23 nM
- Cc1sc(NC(=O)CN2CCOCC2)c(C(=O)c2ccccc2)c1C — within 1.5-fold, 1.18 nM
- COc1cc(OC)c2c(OC)c(-c3ccc4c(c3)OCO4)c(=O)oc2c1 — within 1.5-fold, 1.43 nM
- CCOC(=O)c1c(NC(=O)c2cccs2)sc2c1CCCC2 — within 1.5-fold, 0.81 nM
- Cc1ccsc1-c1n[nH]c(=S)n1C1CCCCC1 — within 1.5-fold, 1.2 nM
- CCOc1ccc(OCC)c(NC(=O)CN2CCN(c3cc(C)ccc3C)CC2)c1 — within 1.5-fold, 0.8 nM
- CCOC(=O)c1ccccc1NC(=O)COc1ccccc1 — within 1.5-fold, 1.04 nM
- O=c1nc(-c2ccccc2)cc(-c2ccccc2)[nH]1 — 2-fold higher, 2.21 nM
- CC(C)Oc1ccc(/C=C(/NC(=O)c2ccccc2)C(=O)NCCC(=O)O)cc1 — within 1.5-fold, 0.92 nM
- Oc1c(Cl)cc(Cl)cc1Sc1cc(Cl)cc(Cl)c1O — 1.9-fold lower, 0.58 nM
- O=C1CCCc2ccccc2N1Cc1c(Cl)cccc1Cl — within 1.5-fold, 1.04 nM
- O=C1C2C(c3ccccc3)C=CC(c3ccccc3)C2C(=O)N1c1ccncc1 (stereo unspecified) — 1.7-fold lower, 0.65 nM

With CC(Sc1ccc2ccccc2n1)C(=O)O (stereo unspecified) the PGE2 EC50 with compound was 3.1 nM and 3.84 nM.
